Entries after “also recorded” stand apart in the source; their conditions may differ. Read-outs that look alike come from different tables or passages of the source.
Assays:
[1] = system: wild-type p53-expressing (H460) cell line; test: CTG cell proliferation assay, H460 cell line; assay type: cell-based; details: for IC50: Homo sapiens, read-out: IC50
Experimental: (§1) Each CTG cell proliferation assay included the steps as follows: • 1) An H460 or HT29 cell suspension was added to a 96-well plate at 100 μL per well so that each well contained 2000 or 10000 cells. • 2) The cells were incubated overnight at 37° C. in an incubator with 5% CO2. • 3) Treatment with Compounds
(§2) Combination therapy: 1 μL of adavosertib (at four concentrations), AZD7762 (at four concentrations), palbociclib (at four concentrations) or ceralasertib (at three concentrations) was added to each well and shaken gently until homogeneous mixing.
(§3) 7) Chemiluminescence was read for 1000 ms on a multimode microplate reader. • 8) IC50 (half-maximal inhibitory concentration) values of the compounds were calculated using the GraphPad Prism 5 software. 1.

[2] = system: p53-deficient (HT29) cell line; test: CTG cell proliferation assay, HT29 cell line; assay type: cell-based; details: for IC50: read-out: IC50
Experimental: as §1, §2, §3

[3] = H460 (wild-type p53), both drugs at low concentrations
[4] = HT29 (p53-deficient), various concentrations, also low

`C[C@H](OP(=O)(N1CC1)N1CC1)c1ccc([N+](=O)[O-])c(Oc2cccc(C(=O)N(C)C)c2)c1` [AST-3424, (S)-1-(3-(3-N,N-dimethylaminocarbonyl)phenoxyl-4-nitrophenyl)-1-ethyl-N,N′-bis(ethylene)phosphoramidate] was tested, and the “additive cytotoxic effect in combination therapy with ceralasertib” value ([1]; H460 (wild-type p53)) was “significant additive cytotoxic effect”, the “additive cytotoxic effect in combination therapy with palbociclib” value ([1]; H460 (wild-type p53), all concentrations) was “did not exhibit any significant additive cytotoxic effects” and the “additive cytotoxic effect in combination therapy with AZD7762” value (“additive cytotoxic effect … with AZD7762” below) [1, 3] was “not significant”. The “additive cytotoxic effect in combination therapy with adavosertib” value (from here on “additive cytotoxic effect … with adavosertib”) [1, 3] was “not significant”, the “additive cytotoxic effect in combination therapy with ceralasertib” value [1, 3] was “not significant” and the “additive cytotoxic effect … with AZD7762” value ([1]; H460 (wild-type p53), medium and high concentrations) was “certain additive cytotoxic effects”. The “additive cytotoxic effect in combination therapy with ceralasertib” value ([1]; H460 (wild-type p53), medium or high concentration) was “certain additive cytotoxic effects”, the “additive cytotoxic effect … with adavosertib” value ([1]; H460 (wild-type p53), medium or high concentrations) was “certain additive cytotoxic effects” and the Ratio combo/single ([1]; H460, 0.15 μM ceralasertib, first assay) was 6.67. The Ratio combo/single ([1]; H460, 0.15 μM ceralasertib, second assay) was 4.00, the Ratio combo/single ([1]; H460, 0.44 μM ceralasertib, first assay) was 20.00 and the Ratio combo/single ([1]; H460, 0.44 μM ceralasertib, second assay) was 24.00. It also gave a Ratio combo/single ([1]; H460, 1.3 μM ceralasertib, first assay) of 13.33, a Ratio combo/single ([1]; H460, 1.3 μM ceralasertib, second assay) of 12.00 and a Ratio single/combo ([1]; H460, IC50 monotherapy / IC50 with 0.5 nM AZD7762) of 1.03. The Ratio single/combo ([1]; H460, IC50 monotherapy / IC50 with 0.5 nM adavosertib) was 1.10, the Ratio single/combo ([1]; H460, IC50 monotherapy / IC50 with 6.4 nM AZD7762) was 0.73 and the Ratio single/combo ([1]; H460, IC50 monotherapy / IC50 with 6.4 nM adavosertib) was 1.26. The Ratio single/combo ([1]; H460, IC50 monotherapy / IC50 with 160 nM AZD7762) was 2.13, the Ratio single/combo ([1]; H460, IC50 monotherapy / IC50 with 160 nM adavosertib) was 1.79 and the Ratio single/combo ([1]; H460, IC50 monotherapy / IC50 with 800 nM adavosertib) was 2.27. It also gave a Ratio combo/single ([1]; H460, IC50 with 0.05 nM palbociclib / IC50 monotherapy) of 1.12, a Ratio combo/single ([1]; H460, IC50 with 0.64 nM palbociclib / IC50 monotherapy) of 1.12 and a Ratio combo/single ([1]; H460, IC50 with 400 nM palbociclib / IC50 monotherapy) of 1.24. It also gave an IC50 ([1]; NCI-H460, 72 h, H460, monotherapy, 72 h) of 0.34 nM, an IC50 ([1]; NCI-H460, H460, monotherapy, first assay) of 0.4 nM and an IC50 ([1]; NCI-H460, H460, monotherapy, second assay) of 0.24 nM. For the same compound, the IC50 ([1]; NCI-H460, H460, with 0.05 nM palbociclib (2 h pretreatment), 72 h) was 0.38 nM, the IC50 ([1]; NCI-H460, H460, with 0.5 nM AZD7762 (2 h pretreatment), 72 h) was 0.33 nM and the IC50 ([1]; NCI-H460, H460, with 0.5 nM adavosertib (2 h pretreatment), 72 h) was 0.31 nM. It also gave an IC50 ([1]; NCI-H460, H460, with 0.64 nM palbociclib (2 h pretreatment), 72 h) of 0.38 nM, an IC50 ([1]; NCI-H460, H460, with 6.4 nM AZD7762 (2 h pretreatment), 72 h) of 0.47 nM and an IC50 ([1]; NCI-H460, H460, with 6.4 nM adavosertib (2 h pretreatment), 72 h) of 0.27 nM. It also gave an IC50 ([1]; NCI-H460, H460, with 0.15 μM ceralasertib, first assay) of 0.06 nM, an IC50 ([1]; NCI-H460, H460, with 0.15 μM ceralasertib, second assay) of 0.06 nM and an IC50 ([1]; NCI-H460, H460, with 160 nM AZD7762 (2 h pretreatment), 72 h) of 0.16 nM. The IC50 ([1]; NCI-H460, H460, with 160 nM adavosertib (2 h pretreatment), 72 h) was 0.19 nM, the IC50 ([1]; NCI-H460, H460, with 400 nM palbociclib (2 h pretreatment), 72 h) was 0.42 nM and the IC50 ([1]; NCI-H460, H460, with 0.44 μM ceralasertib, first assay) was 0.02 nM. For the same compound, the IC50 ([1]; NCI-H460, H460, with 0.44 μM ceralasertib, second assay) was 0.01 nM, the IC50 ([1]; NCI-H460, H460, with 800 nM adavosertib (2 h pretreatment), 72 h) was 0.15 nM and the IC50 ([1]; NCI-H460, H460, with 1.3 μM ceralasertib, first assay) was 0.03 nM. For the same compound, the IC50 ([1]; NCI-H460, H460, with 1.3 μM ceralasertib, second assay) was 0.02 nM, the “additive cytotoxic effect in combination therapy with ceralasertib” value ([2]; HT29 (p53-deficient), various concentrations) was “very significant additive effects; also recorded: significant additive cytotoxic effects” and the “additive cytotoxic effect … with AZD7762” value [2, 4] was “significant additive cytotoxic effects”. For the same compound, the “additive cytotoxic effect … with adavosertib” value [2, 4] was “significant additive cytotoxic effects”, the “additive cytotoxic effect in combination therapy with palbociclib” value [2, 4] was “significant additive cytotoxic effects” and the Ratio single/combo ([2]; HT29, 0.44 μM ceralasertib 2 h-pretreatment + AST-3424-72 h-cotreatment) was 37.56. It also gave a Ratio single/combo ([2]; HT29, 0.44 μM ceralasertib + AST-3424 72 h, simultaneously) of 51.53, a Ratio single/combo ([2]; HT29, AST-3424-2 h-pretreatment + 0.44 μM ceralasertib-72 h-cotreatment) of 52.44 and a Ratio single/combo ([2]; HT29, IC50 monotherapy / IC50 with 50 nM palbociclib) of 1.17. It also gave a Ratio single/combo ([2]; HT29, IC50 monotherapy / IC50 with 100 nM AZD7762) of 65.70, a Ratio single/combo ([2]; HT29, IC50 monotherapy / IC50 with 100 nM adavosertib) of 40.17 and a Ratio single/combo ([2]; HT29, IC50 monotherapy / IC50 with 130 nM AZD7762) of 70.63. For the same compound, the Ratio single/combo ([2]; HT29, IC50 monotherapy / IC50 with 130 nM adavosertib) was 55.39, the Ratio single/combo ([2]; HT29, IC50 monotherapy / IC50 with 160 nM AZD7762) was 71.82 and the Ratio single/combo ([2]; HT29, IC50 monotherapy / IC50 with 160 nM adavosertib) was 70.63. For the same compound, the Ratio single/combo ([2]; HT29, IC50 monotherapy / IC50 with 1000 nM palbociclib) was 1.92, the Ratio single/combo ([2]; HT29, IC50 monotherapy / IC50 with 5000 nM palbociclib) was 2.34 and the “influence of the order of adding drugs on additive cytotoxic effect with ceralasertib” value ([2]; HT29, different orders of adding AST-3424 and 0.44 μM ceralasertib) was “did not show any differences”. The IC50 ([2]; HT29, monotherapy, 72 h) was 73.4 nM, the IC50 ([2]; Homo sapiens, HT-29, 72 h, HT29, 0.44 μM ceralasertib + AST-3424 72 h, simultaneously) was 1.72 nM and the IC50 ([2]; Homo sapiens, HT-29, 72 h, HT29, monotherapy, 72 h) was 84.8 nM. It also gave an IC50 ([2]; Homo sapiens, HT-29, HT29, 0.44 μM ceralasertib 2 h-pretreatment + AST-3424-72 h-cotreatment) of 2.36 nM, an IC50 ([2]; Homo sapiens, HT-29, HT29, AST-3424-2 h-pretreatment + 0.44 μM ceralasertib-72 h-cotreatment) of 1.69 nM and an IC50 ([2]; Homo sapiens, HT-29, HT29, monotherapy, first assay) of 129 nM. For the same compound, the IC50 ([2]; Homo sapiens, HT-29, HT29, monotherapy, order-of-addition assay) was 88.6 nM, the IC50 ([2]; Homo sapiens, HT-29, HT29, monotherapy, second assay) was 99 nM and the IC50 ([2]; Homo sapiens, HT-29, HT29, with 0.04 μM ceralasertib, first assay) was 3.26 nM. For the same compound, the IC50 ([2]; Homo sapiens, HT-29, HT29, with 0.04 μM ceralasertib, second assay) was 1.62 nM, the IC50 ([2]; Homo sapiens, HT-29, HT29, with 50 nM palbociclib (2 h pretreatment), 72 h) was 62.5 nM and the IC50 ([2]; Homo sapiens, HT-29, HT29, with 100 nM AZD7762 (2 h pretreatment), 72 h) was 1.29 nM. For the same compound, the IC50 ([2]; Homo sapiens, HT-29, HT29, with 100 nM adavosertib (2 h pretreatment), 72 h) was 2.11 nM, the IC50 ([2]; Homo sapiens, HT-29, HT29, with 130 nM AZD7762 (2 h pretreatment), 72 h) was 1.2 nM and the IC50 ([2]; Homo sapiens, HT-29, HT29, with 130 nM adavosertib (2 h pretreatment), 72 h) was 1.52 nM. It also gave an IC50 ([2]; Homo sapiens, HT-29, HT29, with 160 nM AZD7762 (2 h pretreatment), 72 h) of 1.18 nM, an IC50 ([2]; Homo sapiens, HT-29, HT29, with 160 nM adavosertib (2 h pretreatment), 72 h) of 1.2 nM and an IC50 ([2]; Homo sapiens, HT-29, HT29, with 1000 nM palbociclib (2 h pretreatment), 72 h) of 38.1 nM. The IC50 ([2]; Homo sapiens, HT-29, HT29, with 1.3 μM ceralasertib, first assay) was 1.42 nM, the IC50 ([2]; Homo sapiens, HT-29, HT29, with 1.3 μM ceralasertib, second assay) was 1.21 nM and the IC50 ([2]; Homo sapiens, HT-29, HT29, with 2 μM ceralasertib, first assay) was 2.41 nM. For the same compound, the IC50 ([2]; Homo sapiens, HT-29, HT29, with 2 μM ceralasertib, second assay) was 1.23 nM and the IC50 ([2]; Homo sapiens, HT-29, HT29, with 5000 nM palbociclib (2 h pretreatment), 72 h) was 31.4 nM.

— patent US20260183320A1, “METHOD FOR TREATING CANCER BY COMBINING ALKYLATING AGENT PRODRUG AND CELL CYCLE INHIBITOR” (ASCENTAWITS PHARMACEUTICALS, LTD., priority 2022, published 2026)
